Experimental data reported in ChEMBL document CHEMBL5653615 (J Biol Chem, 2013).

Legend:
[1] = biological target: Calcium/calmodulin-dependent protein kinase type II subunit beta (Homo sapiens) (UniProt Q13554); test: Inhibition of human CAMK2b at 500 nM by HotSpot assay relative to control
[2] = biological target: CDK9/Cyclin K (Homo sapiens) (UniProt P50750+O75909); test: Inhibition of human CDK9/cyclin K at 500 nM by HotSpot assay relative to control; type: protein-complex assay
[3] = biological target: T1, Ephrin type-B receptor 2 (Homo sapiens) (UniProt P29323); test: Inhibition of human EPHB2 at 500 nM by HotSpot assay relative to control
T1 sequence (whole entry): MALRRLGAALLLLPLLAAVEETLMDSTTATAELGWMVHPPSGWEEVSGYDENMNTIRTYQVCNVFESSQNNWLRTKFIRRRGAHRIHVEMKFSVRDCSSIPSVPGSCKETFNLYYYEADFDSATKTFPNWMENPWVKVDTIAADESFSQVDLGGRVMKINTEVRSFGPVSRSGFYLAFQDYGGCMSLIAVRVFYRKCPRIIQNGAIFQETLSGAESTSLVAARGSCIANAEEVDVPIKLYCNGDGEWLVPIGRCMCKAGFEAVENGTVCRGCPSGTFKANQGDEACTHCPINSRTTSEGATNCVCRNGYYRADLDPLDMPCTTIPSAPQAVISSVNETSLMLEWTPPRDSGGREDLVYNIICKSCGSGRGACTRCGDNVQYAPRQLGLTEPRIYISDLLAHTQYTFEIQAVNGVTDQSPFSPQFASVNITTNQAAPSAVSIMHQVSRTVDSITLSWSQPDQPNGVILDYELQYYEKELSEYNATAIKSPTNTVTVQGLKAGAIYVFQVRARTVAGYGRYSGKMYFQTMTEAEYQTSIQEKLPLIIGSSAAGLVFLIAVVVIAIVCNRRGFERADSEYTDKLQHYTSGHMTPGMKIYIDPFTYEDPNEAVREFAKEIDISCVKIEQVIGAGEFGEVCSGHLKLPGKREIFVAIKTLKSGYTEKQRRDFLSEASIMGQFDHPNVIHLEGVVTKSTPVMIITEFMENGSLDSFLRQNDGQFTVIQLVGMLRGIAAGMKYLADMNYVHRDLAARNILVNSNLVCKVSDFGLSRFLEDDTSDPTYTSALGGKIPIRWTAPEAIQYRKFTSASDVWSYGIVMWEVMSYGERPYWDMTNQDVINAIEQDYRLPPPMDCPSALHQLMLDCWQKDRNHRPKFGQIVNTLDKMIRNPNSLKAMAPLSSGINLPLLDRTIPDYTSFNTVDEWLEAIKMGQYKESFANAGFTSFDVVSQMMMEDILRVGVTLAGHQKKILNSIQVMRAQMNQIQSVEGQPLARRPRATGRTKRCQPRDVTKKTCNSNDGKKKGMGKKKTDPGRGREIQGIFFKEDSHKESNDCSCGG

[4] = biological target: Fibroblast growth factor receptor 4 (Homo sapiens) (UniProt P22455); test: Inhibition of human FGFR4 at 500 nM by HotSpot assay relative to control
Fibroblast growth factor receptor 4 (Homo sapiens), sequence (P22455 22-802 limits assumed): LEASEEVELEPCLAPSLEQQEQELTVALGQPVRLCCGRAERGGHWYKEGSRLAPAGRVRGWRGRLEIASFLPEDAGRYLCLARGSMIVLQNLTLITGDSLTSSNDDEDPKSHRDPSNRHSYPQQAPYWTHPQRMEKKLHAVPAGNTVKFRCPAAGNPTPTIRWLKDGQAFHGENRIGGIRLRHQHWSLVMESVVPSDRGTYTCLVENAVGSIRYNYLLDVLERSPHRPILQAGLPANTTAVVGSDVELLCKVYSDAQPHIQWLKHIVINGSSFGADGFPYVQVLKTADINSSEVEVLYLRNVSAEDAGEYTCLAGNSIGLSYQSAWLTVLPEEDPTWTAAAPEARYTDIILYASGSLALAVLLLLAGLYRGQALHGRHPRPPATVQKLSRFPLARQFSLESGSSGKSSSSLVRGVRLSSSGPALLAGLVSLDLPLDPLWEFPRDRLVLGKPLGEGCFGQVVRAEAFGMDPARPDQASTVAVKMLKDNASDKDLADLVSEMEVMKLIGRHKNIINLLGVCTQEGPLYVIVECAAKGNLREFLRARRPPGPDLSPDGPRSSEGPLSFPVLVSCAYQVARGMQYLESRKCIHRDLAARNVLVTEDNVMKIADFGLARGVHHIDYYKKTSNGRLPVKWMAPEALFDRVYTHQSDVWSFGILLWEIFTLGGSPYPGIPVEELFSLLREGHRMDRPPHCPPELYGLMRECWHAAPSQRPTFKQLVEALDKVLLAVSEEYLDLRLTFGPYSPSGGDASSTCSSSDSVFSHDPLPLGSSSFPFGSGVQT

[5] = biological target: T2, Tyrosine-protein kinase ITK/TSK (Homo sapiens) (UniProt Q08881); test: Inhibition of human ITK at 500 nM by HotSpot assay relative to control
T2 sequence (whole entry): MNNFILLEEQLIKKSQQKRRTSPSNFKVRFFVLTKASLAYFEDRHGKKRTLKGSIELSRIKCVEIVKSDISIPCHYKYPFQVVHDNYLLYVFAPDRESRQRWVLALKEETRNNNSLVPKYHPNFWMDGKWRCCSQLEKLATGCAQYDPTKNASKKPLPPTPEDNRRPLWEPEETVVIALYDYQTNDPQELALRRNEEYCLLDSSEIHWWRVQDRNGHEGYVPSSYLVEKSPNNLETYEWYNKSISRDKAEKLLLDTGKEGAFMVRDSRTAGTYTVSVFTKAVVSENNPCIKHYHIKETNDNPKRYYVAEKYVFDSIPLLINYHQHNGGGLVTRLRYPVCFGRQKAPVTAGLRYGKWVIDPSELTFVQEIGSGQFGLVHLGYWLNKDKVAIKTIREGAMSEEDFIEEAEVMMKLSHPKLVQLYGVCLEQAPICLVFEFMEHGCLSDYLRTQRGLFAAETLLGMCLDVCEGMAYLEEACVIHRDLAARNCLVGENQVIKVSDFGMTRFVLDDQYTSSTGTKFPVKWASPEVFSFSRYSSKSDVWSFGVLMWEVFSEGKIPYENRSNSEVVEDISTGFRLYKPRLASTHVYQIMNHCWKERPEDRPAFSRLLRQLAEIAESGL

[6] = biological target: T3, Mitogen-activated protein kinase kinase kinase 2 (Homo sapiens) (UniProt Q9Y2U5); test: Inhibition of human MEKK2 at 500 nM by HotSpot assay relative to control
T3 sequence (whole entry): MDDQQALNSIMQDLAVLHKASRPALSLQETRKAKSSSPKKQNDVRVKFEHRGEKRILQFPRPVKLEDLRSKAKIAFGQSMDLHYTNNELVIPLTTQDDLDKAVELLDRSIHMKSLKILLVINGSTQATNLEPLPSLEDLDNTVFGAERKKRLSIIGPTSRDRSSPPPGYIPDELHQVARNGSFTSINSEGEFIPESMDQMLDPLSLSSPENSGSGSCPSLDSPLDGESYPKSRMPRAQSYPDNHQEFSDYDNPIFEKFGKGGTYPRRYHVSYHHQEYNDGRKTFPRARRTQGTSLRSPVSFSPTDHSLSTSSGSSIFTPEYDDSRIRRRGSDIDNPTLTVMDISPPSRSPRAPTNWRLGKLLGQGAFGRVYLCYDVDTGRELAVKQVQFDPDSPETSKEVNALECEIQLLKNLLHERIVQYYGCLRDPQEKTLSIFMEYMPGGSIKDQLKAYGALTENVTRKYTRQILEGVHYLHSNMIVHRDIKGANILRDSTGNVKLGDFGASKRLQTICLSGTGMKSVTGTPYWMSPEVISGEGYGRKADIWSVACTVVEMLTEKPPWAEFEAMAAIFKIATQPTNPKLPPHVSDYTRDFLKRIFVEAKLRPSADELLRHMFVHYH

[7] = biological target: Ribosomal protein S6 kinase beta-2 (Homo sapiens) (UniProt Q9UBS0); test: Inhibition of human RPS6KB2 at 500 nM by HotSpot assay relative to control
Ribosomal protein S6 kinase beta-2 (Homo sapiens), sequence (Q9UBS0 whole entry, canonical isoform): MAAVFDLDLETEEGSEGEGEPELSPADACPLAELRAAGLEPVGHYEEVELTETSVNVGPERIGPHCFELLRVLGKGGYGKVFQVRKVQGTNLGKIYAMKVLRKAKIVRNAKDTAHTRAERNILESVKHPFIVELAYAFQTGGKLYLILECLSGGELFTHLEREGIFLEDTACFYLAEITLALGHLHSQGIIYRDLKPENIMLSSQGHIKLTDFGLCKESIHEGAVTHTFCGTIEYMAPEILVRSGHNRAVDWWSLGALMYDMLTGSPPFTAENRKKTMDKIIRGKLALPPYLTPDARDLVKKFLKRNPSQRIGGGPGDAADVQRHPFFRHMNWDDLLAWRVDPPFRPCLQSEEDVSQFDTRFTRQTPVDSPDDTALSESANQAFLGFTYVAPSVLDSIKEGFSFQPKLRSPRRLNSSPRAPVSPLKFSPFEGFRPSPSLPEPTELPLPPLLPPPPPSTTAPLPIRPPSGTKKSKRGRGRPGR

[8] = biological target: Phosphorylase b kinase gamma catalytic chain, skeletal muscle/heart isoform (Homo sapiens) (UniProt Q16816); test: Inhibition of human PHKg1 at 500 nM by HotSpot assay relative to control
Phosphorylase b kinase gamma catalytic chain, skeletal muscle/heart isoform (Homo sapiens), sequence (Q16816 whole entry, looked up, canonical isoform): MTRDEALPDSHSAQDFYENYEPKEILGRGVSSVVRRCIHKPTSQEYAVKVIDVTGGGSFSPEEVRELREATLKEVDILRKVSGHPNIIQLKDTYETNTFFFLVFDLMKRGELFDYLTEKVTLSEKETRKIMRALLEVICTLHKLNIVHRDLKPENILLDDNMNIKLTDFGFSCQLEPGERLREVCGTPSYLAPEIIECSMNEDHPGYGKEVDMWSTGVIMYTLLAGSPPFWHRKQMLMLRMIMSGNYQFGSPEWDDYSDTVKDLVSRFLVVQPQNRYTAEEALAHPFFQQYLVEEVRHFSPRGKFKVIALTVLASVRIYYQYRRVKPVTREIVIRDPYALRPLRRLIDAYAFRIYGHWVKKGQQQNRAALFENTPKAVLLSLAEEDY

[9] = biological target: Protein kinase C delta type (Homo sapiens) (UniProt Q05655); test: Inhibition of human PKCd at 500 nM by HotSpot assay relative to control
Protein kinase C delta type (Homo sapiens), sequence (Q05655 whole entry, looked up): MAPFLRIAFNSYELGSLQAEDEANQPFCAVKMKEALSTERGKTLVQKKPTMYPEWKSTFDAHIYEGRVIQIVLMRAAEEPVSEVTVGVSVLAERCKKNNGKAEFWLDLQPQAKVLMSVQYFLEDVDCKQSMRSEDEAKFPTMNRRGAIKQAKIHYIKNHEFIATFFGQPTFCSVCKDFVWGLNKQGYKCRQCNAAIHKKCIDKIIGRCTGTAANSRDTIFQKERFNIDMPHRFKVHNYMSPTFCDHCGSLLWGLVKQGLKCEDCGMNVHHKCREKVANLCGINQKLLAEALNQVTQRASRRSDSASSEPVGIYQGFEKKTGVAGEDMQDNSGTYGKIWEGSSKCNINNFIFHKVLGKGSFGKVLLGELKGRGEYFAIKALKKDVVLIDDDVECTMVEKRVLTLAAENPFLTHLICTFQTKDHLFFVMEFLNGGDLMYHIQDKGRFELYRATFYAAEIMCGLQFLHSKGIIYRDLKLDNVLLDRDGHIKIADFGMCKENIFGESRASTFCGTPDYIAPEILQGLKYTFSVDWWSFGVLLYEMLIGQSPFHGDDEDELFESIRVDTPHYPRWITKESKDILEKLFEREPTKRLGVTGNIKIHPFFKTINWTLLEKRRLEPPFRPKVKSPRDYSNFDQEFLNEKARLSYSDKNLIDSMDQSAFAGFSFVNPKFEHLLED

Calcium/calmodulin-dependent protein kinase type II subunit beta (Homo sapiens), sequence (Q13554 whole entry): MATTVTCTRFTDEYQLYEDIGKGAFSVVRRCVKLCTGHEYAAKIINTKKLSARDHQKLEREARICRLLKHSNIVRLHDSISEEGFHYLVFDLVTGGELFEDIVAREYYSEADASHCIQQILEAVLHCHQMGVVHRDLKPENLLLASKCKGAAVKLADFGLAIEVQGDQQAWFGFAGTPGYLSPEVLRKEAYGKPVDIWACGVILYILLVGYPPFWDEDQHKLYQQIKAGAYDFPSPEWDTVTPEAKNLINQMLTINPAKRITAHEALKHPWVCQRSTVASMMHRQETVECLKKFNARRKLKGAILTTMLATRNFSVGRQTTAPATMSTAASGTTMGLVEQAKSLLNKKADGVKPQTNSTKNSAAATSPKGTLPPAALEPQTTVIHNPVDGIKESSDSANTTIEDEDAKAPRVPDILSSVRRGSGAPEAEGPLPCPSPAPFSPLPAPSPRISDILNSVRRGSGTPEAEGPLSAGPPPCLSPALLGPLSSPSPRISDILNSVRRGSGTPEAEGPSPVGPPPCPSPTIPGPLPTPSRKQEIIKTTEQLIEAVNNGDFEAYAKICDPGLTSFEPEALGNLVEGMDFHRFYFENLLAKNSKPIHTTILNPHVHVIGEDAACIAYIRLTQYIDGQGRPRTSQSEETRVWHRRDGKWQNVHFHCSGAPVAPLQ

Row | SMILES | inhibition [1] | inhibition [2] | inhibition [3] | inhibition [4] | inhibition [5] | inhibition [6] | inhibition [7] | inhibition [8] | inhibition [9]
1 | Nc1n[nH]c2nnc(-c3c(-c4ccccc4)nn4ccccc34)cc12 | -2.4% | 1.48% | 6.94% | -3.98% | 9.17% | 2.22% | -4.11% | -0.96% | 68.8%
2 | Oc1n[nH]c2nnc(-c3c(-c4ccccc4)nn4ccccc34)cc12 | -1.77% | -4.88% | 5.22% | -3.29% | 6.55% | -0.17% | -8.15% | -1.18% | 2.29%
